According to patent publication US8796268B2, “Heteroaryls and uses thereof” (Millennium Pharmaceuticals, Inc., priority 2010, dated 2014):
Read-outs that look alike come from different tables or passages of the source.

Tests used:
[1] = target: T1, Human PI3K beta (Homo sapiens, UniProt P42338); experiment: Human PI3K beta enzyme assay (HTRF); type: biochemical; settings: for IC50: read-out: PI3 Kbeta IC50
T1 construct: His (N); host or cells: SF9 insect cells (baculovirus)
From the text: (§1) The catalytic subunits of PI3Ks are cloned into either pDEST8(p110 alpha) or pDEST10(p110beta, p110delta, and p110gamma) as N-terminal His tagged fusion proteins using the Gateway system (Invitrogen, catalog#11804-010 for pDEST8 and 11806-015 for pDEST10). The sequences are verified before recombinant protein expression using the Baculovirus Expression System with Gateway® Technology. The accession numbers for the subunits are as follows: • p110 alpha (GB:U79143) • p110beta (GB: S67334) • p110delta (GB: U86453) • p110gamma (GB: X83368) • The regulatory subunits of PI3Ks are cloned into pDEST8 as un-tagged protein using the Gateway system (Catalog#11804-010). The sequences are verified before recombinant protein expression using the Baculovirus Expression System with Gateway® Technology. The accession numbers for the subunits are as following: • p85 alpha (GB: BC030815) • p101(GB: AB028925) • VPS34 (accession number GB:BC033004) is cloned into pDEST20—Thombin as N-terminal GST tagged fusion proteins using the Gateway system (Invitrogen, catalog#11804-013). The sequences are verified before recombinant protein expression using the Baculovirus Expression System with Gateway® Technology.
(§2) For expression of the p110 complexes, the p85 (MOI of 4) is co-infected with p110 alpha, beta, and delta respectively (1MOI) in SF9 cells and harvested at 60 hours post co-infection. P110 gamma was infected at 1 MOI and harvested at 60 hours post infection.
(§3) For purification, PI3Ks are purified by Ni-NTA Agarose (Qiagen #30250) followed by Mono Q 10/100 GL (Ge Healthcare #17-5167-01). VPS34 is purified by Glutathione Sepharose 4 Fast Flow (GE Healthcare #17-5132-03) followed by HiTrap Q (GE Healthcare #17-1153-01).
(§4) 0.5 uL compounds in DMSO are added to wells of a 384 well microtitre plate (Corning 3575). At room temperature: 10 ul PI3K reaction buffer (50 mM Hepes, 5 mM DTT, 150 mM NaCl, 10 mM beta-glycerophosphate, 10 mM MgCl2, 0.25 mM sodium cholate and 0.001% CHAPS, pH 7.00) containing ATP (25 uM, Promega) is added followed immediately by 10 ul PI3K reaction buffer containing di-C8 P1(4,5)P2 (3.5 uM, CellSignals) and PI3Kalpha (0.4875 nM, Millennium Protein Sciences Group) and the mixture is incubated with shaking at room temperature for 30 minutes. Then 5 ul PI3K stop mix (50 mM Hepes, 5 mM DTT, 150 mM NaCl, 0.01% Tween-20, 15 mM EDTA and 25 nM biotin-PI(3,4,5)P3 (Echelon) is added to quench the reaction followed immediately by addition of 5 ul HTRF detection mix (50 mM Hepes, 5 mM DTT, 150 mM NaCl, 0.01% Tween-20, 40 mM KF, 1.0 nM GST:GRP-1 PH domain (Millennium Protein Sciences Group), 15 nM Streptavidin-XL (CisBio) and 0.375 nM anti-GST Eu++ antibody (CisBio) at pH 7.00). The plates are then incubated for 1 hour at room temperature with shaking and then read on a BMG PheraStar Plus reader.
2) Human PI3K beta, delta and gamma isoforms are tested using the procedure described for PI3K alpha above but with the following changes: PI3K beta (5.25 nM), PI3K delta (0.75 nM) and PI3K gamma (5 nM). All isoforms supplied by Millennium Protein Science Group.
(§5) For the assay methods described above, test compound percent inhibition, at various concentrations, is calculated relative to control (DMSO and EDTA) treated samples. Compound concentration versus percent inhibition curves are fitted to generate IC50 values. One skilled in the art will appreciate that the values generated either as percentage inhibition at a single concentration or IC50 values are subject to experimental variation.

[2] = target: T2, Human PI3K alpha (Homo sapiens, UniProt P42336); experiment: Human PI3K alpha enzyme assay (HTRF); type: biochemical; settings: for IC50: read-out: PI3Kalpha IC50
T2 construct: His (N); host or cells: SF9 insect cells (baculovirus)
From the text: as §1, §2, §3
1) Human PI3K alpha enzyme assay method
as §4, §5

[3] = at a 1.1 μM concentration, read-out: PI3β Percent Inhibition
[4] = at a 1.1 μM concentration, read-out: PI3Kα Percent Inhibition

T2 sequence (P42336 whole entry): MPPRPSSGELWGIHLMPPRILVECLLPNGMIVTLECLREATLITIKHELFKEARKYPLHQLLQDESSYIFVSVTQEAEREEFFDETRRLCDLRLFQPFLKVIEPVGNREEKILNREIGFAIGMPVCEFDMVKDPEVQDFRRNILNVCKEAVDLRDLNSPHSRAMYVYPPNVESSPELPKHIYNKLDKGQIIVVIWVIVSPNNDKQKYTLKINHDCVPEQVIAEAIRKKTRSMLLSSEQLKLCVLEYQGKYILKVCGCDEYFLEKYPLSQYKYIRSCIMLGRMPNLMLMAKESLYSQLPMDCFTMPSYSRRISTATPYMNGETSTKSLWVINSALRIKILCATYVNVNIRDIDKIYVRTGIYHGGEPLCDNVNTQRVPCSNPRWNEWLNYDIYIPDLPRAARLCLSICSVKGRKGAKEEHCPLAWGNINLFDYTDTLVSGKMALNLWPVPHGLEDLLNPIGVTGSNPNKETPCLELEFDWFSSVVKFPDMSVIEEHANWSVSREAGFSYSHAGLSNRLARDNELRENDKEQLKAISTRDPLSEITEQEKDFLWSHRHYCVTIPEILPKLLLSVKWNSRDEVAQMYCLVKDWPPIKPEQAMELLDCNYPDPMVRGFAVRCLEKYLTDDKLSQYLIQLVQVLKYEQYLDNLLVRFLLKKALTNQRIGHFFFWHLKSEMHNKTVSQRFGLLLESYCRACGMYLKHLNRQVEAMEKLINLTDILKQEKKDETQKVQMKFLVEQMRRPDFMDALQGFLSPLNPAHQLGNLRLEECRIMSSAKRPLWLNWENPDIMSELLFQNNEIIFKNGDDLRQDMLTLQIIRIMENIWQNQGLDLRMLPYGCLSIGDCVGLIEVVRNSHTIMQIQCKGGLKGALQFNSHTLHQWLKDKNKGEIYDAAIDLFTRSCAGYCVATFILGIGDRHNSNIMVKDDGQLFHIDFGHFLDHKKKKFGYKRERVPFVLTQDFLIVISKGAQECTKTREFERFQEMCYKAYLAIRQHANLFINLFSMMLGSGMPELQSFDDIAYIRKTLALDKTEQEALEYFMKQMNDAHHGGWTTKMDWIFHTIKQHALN
T2 sequence (P27986 whole entry partner): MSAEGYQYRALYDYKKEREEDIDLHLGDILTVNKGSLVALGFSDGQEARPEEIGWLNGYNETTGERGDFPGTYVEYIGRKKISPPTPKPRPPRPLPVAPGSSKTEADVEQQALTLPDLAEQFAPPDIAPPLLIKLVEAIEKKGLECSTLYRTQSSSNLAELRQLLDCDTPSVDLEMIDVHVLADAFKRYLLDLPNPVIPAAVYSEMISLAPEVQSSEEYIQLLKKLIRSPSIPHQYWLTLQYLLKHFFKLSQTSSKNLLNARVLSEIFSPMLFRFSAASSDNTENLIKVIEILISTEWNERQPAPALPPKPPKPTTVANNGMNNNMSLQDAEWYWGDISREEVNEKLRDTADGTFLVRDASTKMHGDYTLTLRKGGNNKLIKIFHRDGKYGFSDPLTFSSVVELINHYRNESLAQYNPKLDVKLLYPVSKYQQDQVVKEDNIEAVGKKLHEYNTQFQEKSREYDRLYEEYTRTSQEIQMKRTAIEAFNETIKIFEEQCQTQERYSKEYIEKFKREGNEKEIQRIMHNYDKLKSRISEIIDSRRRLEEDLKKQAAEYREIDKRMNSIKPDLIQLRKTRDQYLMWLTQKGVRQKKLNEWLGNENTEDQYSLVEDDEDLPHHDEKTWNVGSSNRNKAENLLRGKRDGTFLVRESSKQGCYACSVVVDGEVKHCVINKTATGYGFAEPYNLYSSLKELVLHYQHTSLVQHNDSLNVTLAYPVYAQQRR
T1 sequence (P42338 whole entry): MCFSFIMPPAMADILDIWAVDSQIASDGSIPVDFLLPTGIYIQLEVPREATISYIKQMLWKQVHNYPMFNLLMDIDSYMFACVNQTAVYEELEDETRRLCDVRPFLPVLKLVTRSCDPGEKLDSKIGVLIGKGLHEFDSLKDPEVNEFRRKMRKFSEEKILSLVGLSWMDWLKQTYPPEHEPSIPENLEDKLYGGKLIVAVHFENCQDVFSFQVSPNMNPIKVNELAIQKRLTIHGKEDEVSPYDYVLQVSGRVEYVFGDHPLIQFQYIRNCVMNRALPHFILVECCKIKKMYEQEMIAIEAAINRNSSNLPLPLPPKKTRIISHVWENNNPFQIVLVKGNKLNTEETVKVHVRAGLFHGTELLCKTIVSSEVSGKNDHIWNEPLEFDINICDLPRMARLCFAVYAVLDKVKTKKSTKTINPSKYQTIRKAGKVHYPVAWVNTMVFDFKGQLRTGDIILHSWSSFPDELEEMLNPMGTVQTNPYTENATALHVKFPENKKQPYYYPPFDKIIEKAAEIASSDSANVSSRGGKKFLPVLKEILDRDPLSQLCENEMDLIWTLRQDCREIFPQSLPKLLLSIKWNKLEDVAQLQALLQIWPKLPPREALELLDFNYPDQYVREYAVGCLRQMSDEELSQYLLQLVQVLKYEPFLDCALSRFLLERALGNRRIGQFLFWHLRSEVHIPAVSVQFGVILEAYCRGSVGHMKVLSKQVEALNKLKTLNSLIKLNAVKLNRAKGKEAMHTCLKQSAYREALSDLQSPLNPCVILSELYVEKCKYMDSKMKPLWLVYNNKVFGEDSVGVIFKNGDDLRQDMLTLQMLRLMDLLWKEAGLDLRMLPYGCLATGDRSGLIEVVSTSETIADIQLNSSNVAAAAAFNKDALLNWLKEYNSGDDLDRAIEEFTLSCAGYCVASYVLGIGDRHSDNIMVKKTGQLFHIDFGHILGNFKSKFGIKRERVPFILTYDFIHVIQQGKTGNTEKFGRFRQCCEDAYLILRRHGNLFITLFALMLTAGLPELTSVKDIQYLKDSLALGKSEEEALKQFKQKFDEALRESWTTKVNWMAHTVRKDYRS
T1 sequence (P27986 whole entry partner): as the sequence (P27986 whole entry partner) above

Row | IC50 [1] | IC50 [2] | SMILES | also measured
1 | 100 to 1000 nM | > 1000 nM | Clc1ccc(Cc2nc(-c3ccncc3)sc2-c2nnc[nH]2)cc1 [Compound 76, 4-(4-chlorobenzyl)-2-(pyridin-4-yl)-5-(4H-1,2,4-triazol-3-yl)thiazole] | –
2 | < 100 nM | > 1000 nM | O[C@H](c1ccc(Cl)cc1)c1cc(-c2ccncc2)sc1-c1nnc[nH]1 [Compound 77] | –
3 | > 1000 nM | > 1000 nM | Fc1cnccc1-c1nc(Cc2ccc(Cl)cc2)c(-c2nc[nH]n2)s1 [Compound 78] | –
4 | 100 to 1000 nM | > 1000 nM | OC(c1ccc(Cl)cc1)c1cc(-c2ccnnc2)sc1-c1nnc[nH]1 (centres unmarked) [Compound 79] | –
5 | < 100 nM | > 1000 nM | O=C(O)c1sc(-c2ccncc2)nc1Cc1ccc(Cl)cc1 [Compound 80, 4-(4-chlorobenzyl)-2-(pyridin-4-yl)thiazole-5-carboxylic acid] | –
6 | < 100 nM | > 1000 nM | N#Cc1cc(-c2cc(C(O)c3ccc(Cl)cc3)c(-c3nnc[nH]3)s2)ccn1 (centres unmarked) [Compound 81, 4-(4-((4-chlorophenyl)(hydroxy)methyl)-5-(4H-1,2,4-triazol-3-yl)thiophen-2-yl)picolinonitrile] | –
7 | 100 to 1000 nM | 100 to 1000 nM | Cc1nn2ccc(CNCCNC(=O)OC(C)(C)C)cc2c1-c1nc(Cc2ccc(Cl)cc2)c(-c2nnc[nH]2)s1 [Compound 82] | –
8 | 100 to 1000 nM | 100 to 1000 nM | Cc1nn2ccc(CN(CCN)Cc3ccccc3)cc2c1-c1nc(Cc2ccc(Cl)cc2)c(-c2nnc[nH]2)s1 [Compound 83] | –
9 | 100 to 1000 nM | > 1000 nM | O[C@@H](c1ccc(Cl)cc1)c1cc(-c2ccncc2)sc1-c1nnc[nH]1 [Compound 84] | –
10 | < 100 nM | > 1000 nM | COc1ccc(C(O)c2cc(-c3ccncc3)sc2-c2nnc[nH]2)cc1 (centres unmarked) [Compound 85, (4-methoxyphenyl)[5-pyridin-4-yl-2-(4H-1,2,4-triazol-3-yl)-3-thienyl]methanol] | –
11 | < 100 nM | 100 to 1000 nM | CC(=O)Nc1cc(-c2cc(C(c3ccc(Cl)cc3)N(C)C)c(-c3nnc[nH]3)s2)ccn1 (centres unmarked) [Compound 86] | –
12 | < 100 nM | > 1000 nM | c1ccc2cc(Cc3nc(-c4ccncc4)sc3-c3nnc[nH]3)ccc2c1 [Compound 87] | –
13 | < 100 nM | > 1000 nM | N#Cc1c(-c2ccnnc2)sc(-c2nnc[nH]2)c1Cc1ccc2ccccc2c1 [Compound 88, 4-(2-naphthylmethyl)-2-pyridazin-4-yl-5-(4H-1,2,4-triazol-3-yl)thiophene-3-carbonitrile] | –
14 | 100 to 1000 nM | > 1000 nM | N#Cc1c(-c2ccnnc2)sc(-c2nnc[nH]2)c1Cc1ccc(Cl)cc1 [Compound 89] | –
15 | < 100 nM | 100 to 1000 nM | CC(=O)Nc1cc(-c2cc(C(c3ccc(Cl)cc3)N3CCC3)c(-c3nnc[nH]3)s2)ccn1 (centres unmarked) [Compound 90] | –
16 | < 100 nM | > 1000 nM | O=c1ccnc(-c2sc(-c3ccncc3)nc2Cc2ccc(Cl)cc2)[nH]1 [Compound 92, 2-(4-(4-chlorobenzyl)-2-(pyridin-4-yl)thiazol-5-yl)pyrimidin-4(3H)-one] | –
17 | – | – | O=C(O)c1sc(N2CCOCC2)nc1Cc1ccc(Cl)cc1F [Compound 101] | inhibition at 1.1 µM [1, 3]: 105%; inhibition at 1.1 µM [2, 4]: 30%
18 | – | – | O=C(O)c1sc(N2CCOCC2)nc1Cc1ccc2c(c1)OCCO2 [Compound 110, 4-(2,3-dihydro-1,4-benzodioxin-6-ylmethyl)-2-(morpholin-4-yl)-1,3-thiazole-5-carboxylic acid] | inhibition at 1.1 µM [1, 3]: 41%; inhibition at 1.1 µM [2, 4]: 5%
19 | – | – | CC(=O)Nc1cc(-c2cc(C(O)(c3ccc(Cl)cc3)C3CCN(C)CC3)c(-c3nnc[nH]3)s2)ccn1 (centres unmarked) [Compound 237, N-(4-{4-[(4-chlorophenyl)(hydroxy)(1-methylpiperidin-4-yl)methyl]-5-(4H-1,2,4-triazol-3-yl)-2-thienyl}pyridin-2-yl)acetamide] | inhibition at 1.1 µM ([1]; concentration not given, b1387 states 1.1 μM for PI3K α and β, read-out: p110 beta Percent Inhibition): 89%; inhibition at 1.1 µM ([2]; concentration not given, b1387 states 1.1 μM for PI3K α and β, read-out: p110 alpha Percent Inhibition): 61%
